# Test results published in patent publication US8003666B2, “Hydrate for medical purposes” (priority 2006, dated 2011).
# Tests used:
# P. vulgaris, 08601 = assay: Antibacterial activity MIC, Japanese Society of Chemotherapy standard procedure; assay type: cell-based; details: Proteus vulgaris
# [1] = system: Mycobacterium tuberculosis (sensitive bacteria); assay: Anti-mycobacterium tuberculosis activity MIC, sensitive bacteria; assay type: cell-based
# E. coli E77156 strain = assay: Therapeutic efficacy in rat simple cystitis model (E. coli); assay type: in vivo; details: orally once at 5, 20 and 80 mg/kg on the next day of infection, in comparison with the count at beginning of the treatment, FIG. 2
# [2] = Moisture sorption and desorption behavior; assay type: physicochemical; details: atmospheric pressure type automatic water vapor adsorption device; FIG. 5
# Source text: Moisture sorption and desorption behavior was examined with an atmospheric pressure type automatic water vapor adsorption device for 7-[(7S)-7-amino-7-methyl-5-azaspiro[2.4]heptan-5-yl]-6-fluoro-1-[(1R,2S)-2-fluorocyclopropyl]-8-methoxy-1,4-dihydro-4-oxoquinoline-3-carboxylic acid hemihydrate obtained in Example 1.
# [3] = Change in moisture sorption and desorption after thermal dehydration; assay type: physicochemical; details: thermal dehydration (60° C.); FIG. 6
# Procedure: Change in moisture sorption and desorption after thermal dehydration (60° C.) was examined for 7-[(7S)-7-amino-7-methyl-5-azaspiro[2.4]heptan-5-yl]-6-fluoro-1-[(1R,2S)-2-fluorocyclopropyl]-8-methoxy-1,4-dihydro-4-oxoquinoline-3-carboxylic acid hemihydrate obtained in Example 1.
# [4] = Change in crystalline form after thermal dehydration; assay type: physicochemical; details: X-ray diffraction on thermal treatments; FIG. 7
# Source text: Change in crystalline form by thermal treatment was examined for 7-[(7S)-7-amino-7-methyl-5-azaspiro[2.4]heptan-5-yl]-6-fluoro-1-[(1R,2S)-2-fluorocyclopropyl]-8-methoxy-1,4-dihydro-4-oxoquinoline-3-carboxylic acid hemihydrate obtained in Example 1.
# [5] = Crystal stability on storage at controlled relative humidity; assay type: physicochemical; details: 25° C., 3 days
# Procedure: Weight change and crystalline form were examined as to 7-[(7S)-7-amino-7-methyl-5-azaspiro[2.4]heptan-5-yl-6-fluoro-1-[(1R,2S)-2-fluorocyclopropyl]-8-methoxy-1,4-dihydro-4-oxoquinoline-3-carboxylic acid hemihydrate obtained in Example 1 by being stored under the condition of 0, 52 or 93% of relative humidity, at 25° C. for 3 days. The crystalline form was evaluated by measuring with powder X-ray diffraction and thermal analysis.
# [6] = assay type: physicochemical
# Procedure: 7-[(7S)-7-amino-7-methyl-5-azaspiro[2.4]heptan-5-yl]-6-fluoro-1-[(1R,2S)-2-fluorocyclopropyl]-8-methoxy-1,4-dihydro-4-oxoquinoline-3-carboxylic acid hemihydrate obtained in Example 1 was each stored for 2 weeks under wet heat condition (40° C., 75% RH), dry heat condition (50° C., of 0% RH) and photo irradiation condition.
# E. coli NIHJ = assay: Antibacterial activity MIC, Japanese Society of Chemotherapy standard procedure; details: Escherichia coli
# S. marscecens, 10100 = assay: as above
# P. aeruginosa, 32104 = assay: as above; details: Pseudomonas aeruginosa
# P. aeruginosa, 32121 = assay: as above; details: Pseudomonas aeruginosa
# S. aureus, 209P = assay: as above; details: Staphylococcus aureus
# S. epidermidis, 56500 = assay: as above; details: Staphylococcus epidermidis
# E. faecalis, ATCC 19433 = assay: as above; details: Enterococcus faecalis, ATCC19433
# S. aureus, 87037 = assay: as above; details: Staphylococcus aureus
# S. pneumoniae, J24 = assay: as above; details: Streptococcus pneumoniae
compound,measurement,setting,value
"COc1c(N2CC3(CC3)[C@](C)(N)C2)c(F)cc2c(=O)c(C(=O)O)cn([C@@H]3C[C@@H]3F)c12 [Hemihydrate, 7-[(7S)-7-Amino-7-methyl-5-azaspiro[2.4]heptan-5-yl]-6-fluoro-1-[(1R,2S)-2-fluorocyclopropyl]-8-methoxy-1,4-dihydro-4-oxoquinoline-3-carboxylic acid hemihydrate]",MIC,"P. vulgaris, 08601",0.025 µg/mL
same,MIC,"[1]; H37RV, strain H37Rv",0.03 µg/mL
same,MIC,[1]; strain Kurono,0.03 µg/mL
same,MIC,[1]; strain Ravenel,0.03 µg/mL
same,MIC,[1]; strain TB-s 2,0.06 µg/mL
same,MIC,[1]; strain TB-s 3,0.06 µg/mL
same,MIC,[1]; strain TB-s 4,0.06 µg/mL
same,MIC,[1]; strain TB-s 5,0.06 µg/mL
same,MIC,[1]; strain TB-s 6,0.06 µg/mL
same,MIC,[1]; strain TB-s 7,0.06 µg/mL
same,MIC,[1]; strain TB-s 8,0.03 µg/mL
same,MIC,[1]; strain TB-s 9,0.06 µg/mL
same,MIC,[1]; strain TB-s 10,0.03 µg/mL
same,MIC,[1]; strain TB-s 11,0.06 µg/mL
same,MIC,[1]; strain TB-s 12,0.125 µg/mL
same,MIC,[1]; strain TB-s 13,0.06 µg/mL
same,MIC,[1]; strain TB-s 14,0.06 µg/mL
same,MIC,[1]; strain TB-s 15,0.06 µg/mL
same,MIC,[1]; strain TB-s 16,0.06 µg/mL
same,MIC,[1]; strain TB-s 17,0.06 µg/mL
same,MIC,[1]; strain TB-s 18,0.06 µg/mL
same,MIC,[1]; strain TB-s 19,0.06 µg/mL
same,MIC,[1]; strain TB-s 20,0.06 µg/mL
same,MIC,[1]; strain TB-s 21,0.06 µg/mL
same,MIC,[1]; strain TB-s 22,0.03 µg/mL
same,Bacterial count in the bladder,E. coli E77156 strain,statistically significant decrease in bacterial count
same,Weight change as humidity changes,[2],≤ 1%
same,Moisture sorption and desorption after thermal dehydration,[3],rehydrated rapidly after being dehydrated
same,Crystalline form after thermal dehydration,[4],had its crystalline state even after being dehydrated
same,Weight Change (%),[5]; 0% RH,0.00%
same,Crystalline form after storage,"[5]; 0, 52 or 93% relative humidity, powder X-ray diffraction and thermal analysis",the crystalline form did not change
same,Weight Change (%),[5]; 52% RH,0.43%
same,Weight Change (%),[5]; 93% RH,0.61%
same,Observation under photo irradiation condition,[6]; photo irradiation condition,color change and some decrease in remaining ratio
same,Content under wet heat and dry heat condition,"[6]; wet heat (40° C., 75% RH) and dry heat (50° C., 0% RH), 2 weeks",stable and its content was not decreased
same,MIC,E. coli NIHJ,0.025 µg/mL
same,MIC,"S. marscecens, 10100",0.1 µg/mL
same,MIC,"P. aeruginosa, 32104",0.39 µg/mL
same,MIC,"P. aeruginosa, 32121",0.2 µg/mL
same,MIC,"S. aureus, 209P",0.025 µg/mL
same,MIC,"S. epidermidis, 56500",0.1 µg/mL
same,MIC,"E. faecalis, ATCC 19433",0.2 µg/mL
same,MIC,"S. aureus, 87037",0.78 µg/mL
same,MIC,"S. pneumoniae, J24",0.1 µg/mL
"CO[C@H]1/C=C/O[C@@]2(C)Oc3c(C)c(O)c4c(O)c(c(/C=N/N5CCN(C)CC5)c(O)c4c3C2=O)NC(=O)/C(C)=C\C=C\[C@H](C)[C@H](O)[C@@H](C)[C@@H](O)[C@@H](C)[C@H](OC(C)=O)[C@@H]1C [RFP, rifampicin]",MIC,"[1]; H37RV, strain H37Rv",0.125 µg/mL
same,MIC,[1]; strain Kurono,0.06 µg/mL
same,MIC,[1]; strain Ravenel,0.125 µg/mL
same,MIC,[1]; strain TB-s 2,0.03 µg/mL
same,MIC,[1]; strain TB-s 3,0.125 µg/mL
same,MIC,[1]; strain TB-s 4,0.06 µg/mL
same,MIC,[1]; strain TB-s 5,0.06 µg/mL
same,MIC,[1]; strain TB-s 6,0.125 µg/mL
same,MIC,[1]; strain TB-s 7,0.06 µg/mL
same,MIC,[1]; strain TB-s 8,0.015 µg/mL
same,MIC,[1]; strain TB-s 9,0.06 µg/mL
same,MIC,[1]; strain TB-s 10,0.06 µg/mL
same,MIC,[1]; strain TB-s 11,0.06 µg/mL
same,MIC,[1]; strain TB-s 12,0.125 µg/mL
same,MIC,[1]; strain TB-s 13,0.06 µg/mL
same,MIC,[1]; strain TB-s 14,0.03 µg/mL
same,MIC,[1]; strain TB-s 15,0.06 µg/mL
same,MIC,[1]; strain TB-s 16,0.06 µg/mL
same,MIC,[1]; strain TB-s 17,0.06 µg/mL
same,MIC,[1]; strain TB-s 18,0.03 µg/mL
same,MIC,[1]; strain TB-s 19,0.125 µg/mL
same,MIC,[1]; strain TB-s 20,0.25 µg/mL
same,MIC,[1]; strain TB-s 21,0.03 µg/mL
same,MIC,[1]; strain TB-s 22,0.015 µg/mL
"O=C(O)c1cn(C2CC2)c2cc(N3CCNCC3)c(F)cc2c1=O [CPFX, ciprofloxacin]",MIC,"P. vulgaris, 08601",≤ 0.003 µg/mL
same,MIC,E. coli NIHJ,≤ 0.003 µg/mL
same,MIC,"S. marscecens, 10100",0.025 µg/mL
same,MIC,"P. aeruginosa, 32104",0.05 µg/mL
same,MIC,"P. aeruginosa, 32121",0.025 µg/mL
same,MIC,"S. aureus, 209P",0.1 µg/mL
same,MIC,"S. epidermidis, 56500",0.2 µg/mL
same,MIC,"E. faecalis, ATCC 19433",0.78 µg/mL
same,MIC,"S. aureus, 87037",> 6.25 µg/mL
same,MIC,"S. pneumoniae, J24",0.39 µg/mL
"C[C@H]1COc2c(N3CCN(C)CC3)c(F)cc3c(=O)c(C(=O)O)cn1c23 [LVFX, levofloxacin]",MIC,"P. vulgaris, 08601",0.012 µg/mL
same,MIC,E. coli NIHJ,0.012 µg/mL
same,MIC,"S. marscecens, 10100",0.1 µg/mL
same,MIC,"P. aeruginosa, 32104",0.2 µg/mL
same,MIC,"P. aeruginosa, 32121",0.1 µg/mL
same,MIC,"S. aureus, 209P",0.2 µg/mL
same,MIC,"S. epidermidis, 56500",0.39 µg/mL
same,MIC,"E. faecalis, ATCC 19433",0.78 µg/mL
same,MIC,"S. aureus, 87037",> 6.25 µg/mL
same,MIC,"S. pneumoniae, J24",0.78 µg/mL
"COc1c(N2CCNC(C)C2)c(F)cc2c(=O)c(C(=O)O)cn(C3CC3)c12 (centres unmarked) [GTFX, gatifloxacin]",MIC,"P. vulgaris, 08601",0.006 µg/mL
same,MIC,E. coli NIHJ,0.006 µg/mL
same,MIC,"S. marscecens, 10100",0.1 µg/mL
same,MIC,"P. aeruginosa, 32104",0.2 µg/mL
same,MIC,"P. aeruginosa, 32121",0.1 µg/mL
same,MIC,"S. aureus, 209P",0.05 µg/mL
same,MIC,"S. epidermidis, 56500",0.2 µg/mL
same,MIC,"E. faecalis, ATCC 19433",0.39 µg/mL
same,MIC,"S. aureus, 87037",1.56 µg/mL
same,MIC,"S. pneumoniae, J24",0.2 µg/mL
